Columns and labels:
[1] = pH sensitivity of 1H NMR proton chemical shift (BIRDS), variable pH; assay type: physicochemical; details: At 11.7 T and a pH range of 6.5-8.0
From the text: (§1) For paramagnetic complexes, the total chemical shift of the nuclear spin (δO) is dependent on the cumulative effects of diamagnetic (δD) and paramagnetic (δP) terms, where δP is typically much larger than δD, which has also a very weak temperature dependence. Thus, the effect of temperature on the chemical shift is dominated by δP. Similarly, protonation of an exchangeable group from the complex can modify its geometry and alter its chemical shifts, thus providing pH sensing capability. Variation of the total shift term, ΔδO, when temperature changes by ΔT and pH changes by ΔpH, can be modeled as
(§2) where CT=(ΔδO/ΔT)pH,[X] is the temperature sensitivity, CpH=(ΔδO/Δ pH)T,[X] is the pH sensitivity, and CX represents the sensitivity to cation X concentration (see Coman, D. et al., “Brain temperature by Biosensor Imaging of Redundant Deviation in Shifts (BIRDS): comparison between TmDOTP5^− and TmDOTMA^−,” NMR in Biomedicine, 2010, 23(3):277-285 for details). pH or temperature sensing with BIRDS depends on CT and CpH in relation to ΔδO (>>10^1 ppm) and is inherently independent of agent concentration and static magnetic field (BO) (Coman, D. et al., “Brain temperature and pH measured by 1H chemical shift imaging of a thulium agent,” NMR in Biomedicine, 2009, 22(2):229-239).
(§3) Since the ^1H NMR chemical shifts of the —NH peaks in the [XDOTA-4AmC]^2− and [XDOTA-4AmP]^6− complexes are temperature and pH-dependent (FIG. 6 and FIG. 7), they can be used for measurements of temperature and pH using BIRDS (Table 1). […] In the [XDOTMA]^2− set of complexes, it was observed that the —CH3 proton resonance has a higher intensity compared to other nonexchangeable proton peaks, like H2 or H3 (FIG. 2). The 3D surface plots in FIGS. 10A-C represent the temperature and pH dependencies of the —CH3 proton resonance of the [XDOTMA]^2− complex.

[2] = Temperature sensitivity of 1H NMR proton chemical shift (BIRDS), variable temperature; assay type: physicochemical; details: At 11.7 T and a temperature range of 25-42° C.
From the text: as §1, §2, §3

pH Sensitivity, —NH proton resonance [1] [ppm/pH unit] | Temperature Sensitivity, —NH proton resonance [2] [ppm/° C.] | SMILES
0.04 ± 0.02 | 0.16 ± 0.01 | O=C([O-])CNC(=O)CN1CCN(CC(=O)NCC(=O)[O-])CCN(CC(=O)NCC(=O)[O-])CCN(CC(=O)NCC(=O)[O-])CC1.[Fe+2] [[Fe(ii)DOTA-4AmC]^2−]
1.07 ± 0.12 | 0.14 ± 0.02 | O=C([O-])CNC(=O)CN1CCN(CC(=O)NCC(=O)[O-])CCN(CC(=O)NCC(=O)[O-])CCN(CC(=O)NCC(=O)[O-])CC1.[Ni+2] [[Ni(ii)DOTA-4AmC]^2−]

SMILES | pH Sensitivity, —NH proton resonance [1] [ppm/pH unit] | Temperature Sensitivity, —NH proton resonance [2] [ppm/° C.]
O=C(CN1CCN(CC(=O)NCP(=O)([O-])[O-])CCN(CC(=O)NCP(=O)([O-])[O-])CCN(CC(=O)NCP(=O)([O-])[O-])CC1)NCP(=O)([O-])[O-].[Co+2] [[Co(ii)DOTA-4AmP]^6−] | 0.37 ± 0.08 | 0.14 ± 0.01
